Data reported in patent publication US20230080054A1 (ILDONG PHARMACEUTICAL CO., LTD., priority 2021, published 2023).

How the values were obtained:
human ANO6 [1] = molecular target: T1, human ANO6 (Homo sapiens, UniProt Q4KMQ2); experiment: YFP quenching assay (ANO6 ion channel activity); assay type: cell-based; settings: 10 μM ionomycin; for inhibition at 1 µM: test compound 1 μM, read-out: Inhibition Level 1 μM; for inhibition at 30 µM: test compound 30 μM, read-out: Inhibition Level 30 μM
T1 construct: expressed in transfected cells
T1 sequence (Q4KMQ2 1-931 isoform Q4KMQ2-2): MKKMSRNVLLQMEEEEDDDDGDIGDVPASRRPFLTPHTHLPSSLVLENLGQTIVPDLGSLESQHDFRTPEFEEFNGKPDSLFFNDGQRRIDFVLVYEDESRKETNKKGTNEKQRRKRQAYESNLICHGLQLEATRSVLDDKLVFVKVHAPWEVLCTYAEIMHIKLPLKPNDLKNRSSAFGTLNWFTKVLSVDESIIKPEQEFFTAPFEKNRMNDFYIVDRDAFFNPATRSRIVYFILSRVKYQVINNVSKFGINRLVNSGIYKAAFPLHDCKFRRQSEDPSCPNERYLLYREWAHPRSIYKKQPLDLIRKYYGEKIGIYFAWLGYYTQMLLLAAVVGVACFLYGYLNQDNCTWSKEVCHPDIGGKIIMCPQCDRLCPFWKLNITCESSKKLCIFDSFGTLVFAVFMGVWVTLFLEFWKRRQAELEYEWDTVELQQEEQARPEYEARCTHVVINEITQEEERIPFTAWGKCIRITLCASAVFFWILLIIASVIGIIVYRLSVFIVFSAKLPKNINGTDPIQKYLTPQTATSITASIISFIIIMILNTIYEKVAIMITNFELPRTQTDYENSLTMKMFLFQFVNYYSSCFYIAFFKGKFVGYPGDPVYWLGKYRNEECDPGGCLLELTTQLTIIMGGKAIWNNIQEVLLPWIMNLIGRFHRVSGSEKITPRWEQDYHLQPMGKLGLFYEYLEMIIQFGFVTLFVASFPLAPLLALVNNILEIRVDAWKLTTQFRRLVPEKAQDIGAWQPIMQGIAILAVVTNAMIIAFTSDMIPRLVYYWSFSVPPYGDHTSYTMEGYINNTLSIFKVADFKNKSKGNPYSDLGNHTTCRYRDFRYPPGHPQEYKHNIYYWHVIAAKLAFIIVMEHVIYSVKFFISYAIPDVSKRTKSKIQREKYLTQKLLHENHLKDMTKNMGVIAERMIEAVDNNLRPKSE
In short: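 FRT cells stably expressing human ANO6 and YFP-H148Q/I152L/F46L, preincubated 10 min at 40° C with compounds (1% DMSO) in PBS. Quench read every 0.4 s after injecting 140 mM SCN- with 10 μM ionomycin; % inhibition from the 3.6–7.6 s fluorescence difference, normalised to no-ionomycin (100%) and ionomycin-only (0%) wells, duplicate or triplicate.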

human ANO6 [2] = molecular target: T1, human ANO6; experiment: LACT C2 assay (phosphatidylserine scramblase function assay); assay type: cell-based; settings: FRT cells expressing human ANO6, 10 μM ionomycin; for inhibition at 0.1 µM: test compound 100 nM, read-out: Inhibition Level 100 nM; for inhibition at 1 µM: test compound 1 μM, read-out: Inhibition Level 1 μM
In short: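 FRT cells stably expressing human ANO6 were pretreated with compound (1% DMSO) for 10 min, then stimulated with 10 μM ionomycin for 10 min. Surface phosphatidylserine was stained with 500 nM Lact-C2-GFP and quantified by imaging. Inhibition was scaled between unstimulated (100%) and ionomycin-only (0%) controls, averaged over triplicates.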

Row | SMILES | inhibition at 1 µM (human ANO6 [1]) [%] | inhibition at 30 µM (human ANO6 [1]) [%] | inhibition at 0.1 µM (human ANO6 [2]) [%] | inhibition at 1 µM (human ANO6 [2]) [%]
1 | CNC(=O)c1cccc(Nc2ccc(-c3ccccc3)nn2)c1 [Compound 41, N-methyl-3-[(6-phenylpyridazin-3-yl)amino]benzamide] | 30 to 60 | ≥ 60 | – | < 30
2 | O=C(NC1CCN(Cc2ccccc2)CC1)c1cccc(Nc2ncc(-c3ccccc3)cn2)c1 [Compound 120, N-(1-benzylpiperidin-4-yl)-3-[(5-phenylpyrimidin-2-yl)amino]benzamide] | < 30 | – | < 30 | < 30
3 | Cc1ccc(CNC(=O)c2cccc(Nc3ccc(-c4ccc(Cl)cc4)nn3)c2)o1 [Compound 75, 3-{[6-(4-chlorophenyl)pyridazin-3-yl]amino}-N-[(5-methylfuran-2-yl)methyl]benzamide] | 30 to 60 | – | – | 30 to 60
4 | O=C(Nc1cccc(F)c1)c1cccc(Nc2ncc(-c3ccccc3)cn2)c1 [Compound 116, N-(3-fluorophenyl)-3-[(5-phenylpyrimidin-2-yl)amino]benzamide] | ≥ 60 | – | < 30 | ≥ 60
5 | O=C(NCc1ccc(Cl)c(Cl)c1)c1cccc(Nc2ccc(-c3ccccc3)nn2)c1 [Compound 36, N-(3,4-dichlorobenzyl)-3-((6-phenylpyridazin-3-yl)amino)benzamide] | ≥ 60 | ≥ 60 | 30 to 60 | ≥ 60
6 | O=C(NCc1ccsc1)c1cccc(Nc2ccc(-c3ccccc3)nn2)c1 [Compound 44, 3-[(6-phenylpyridazin-3-yl)amino]-N-[(thiophen-3-yl)methyl]benzamide] | ≥ 60 | – | – | < 30
7 | Cc1ccc(CNC(=O)c2cccc(Nc3ccc(-c4ccccc4)nn3)c2)s1 [Compound 40, N-[(5-methylthiophen-2-yl)methyl]-3-[(6-phenylpyridazin-3-yl)amino]benzamide] | ≥ 60 | ≥ 60 | < 30 | ≥ 60
8 | Cc1ccc(CNC(=O)c2cccc(Nc3cnc(-c4cccc(F)c4)cn3)c2)o1 [Compound 58, 3-{[5-(3-fluorophenyl)pyrazin-2-yl]amino}-N-[(5-methylfuran-2-yl)methyl]benzamide] | ≥ 60 | – | – | < 30
9 | Cc1ccc(CNC(=O)c2cccc(Nc3ncc(-c4ccccc4C(F)(F)F)cn3)c2)o1 [Compound 98, N-[(5-methylfuran-2-yl)methyl]-3-({5-[2-(trifluoromethyl)phenyl]pyrimidin-2-yl}amino)benzamide] | ≥ 60 | – | – | 30 to 60
10 | Cc1ccc(CNC(=O)c2cccc(Nc3ncc(-c4ccc(C)o4)cn3)c2)o1 [Compound 92, N-[(5-methylfuran-2-yl)methyl]-3-{[5-(5-methylfuran-2-yl)pyrimidin-2-yl]amino}benzamide] | < 30 | – | – | < 30
11 | O=C(NCc1cccs1)c1cccc(Nc2ccc(-c3ccccc3)nn2)c1 [Compound 39, 3-[(6-phenylpyridazin-3-yl)amino]-N-[(thiophen-2-yl)methyl]benzamide] | ≥ 60 | ≥ 60 | – | < 30
12 | O=C(NCCN1CC2CCC1C2)c1cccc(Nc2ncc(-c3ccccc3)cn2)c1 (centres unmarked) [Compound 105, N-(2-{2-azabicyclo[2.2.1]heptan-2-yl}ethyl)-3-[(5-phenylpyrimidin-2-yl)amino]benzamide] | < 30 | – | < 30 | < 30
13 | O=C(N[C@@H]1C[C@H]1c1ccccc1)c1cccc(Nc2ccc(-c3ccccc3)cn2)c1 [Compound 115, N-[(1R,2S)-2-phenylcyclopropyl]-3-[(5-phenylpyridin-2-yl)amino]benzamide] | ≥ 60 | – | ≥ 60 | ≥ 60
14 | O=C(NCCc1ccccc1)c1cccc(Nc2cnc(-c3ccccc3)cn2)c1 [Compound 51, N-(2-phenylethyl)-3-[(5-phenylpyrazin-2-yl)amino]benzamide] | ≥ 60 | – | 30 to 60 | ≥ 60
15 | CC(C)(C)CNC(=O)c1cccc(Nc2ccc(-c3ccccc3)nn2)c1 [Compound 24, N-(2,2-dimethylpropyl)-3-[(6-phenylpyridazin-3-yl)amino]benzamide] | 30 to 60 | ≥ 60 | – | < 30

Results, then the molecule that gave them:

Row | inhibition at 1 µM (human ANO6 [1]) [%] | inhibition at 30 µM (human ANO6 [1]) [%] | inhibition at 0.1 µM (human ANO6 [2]) [%] | inhibition at 1 µM (human ANO6 [2]) [%] | SMILES
16 | ≥ 60 | ≥ 60 | < 30 | < 30 | O=C(NC1CCCC1)c1cccc(Nc2ccc(-c3ccccc3)nn2)c1 [Compound A63]
17 | ≥ 60 | ≥ 60 | 30 to 60 | ≥ 60 | O=C(NCCc1ccc(Cl)cc1)c1cccc(Nc2ccc(-c3ccccc3)nn2)c1 [Compound A45]
18 | 30 to 60 | ≥ 60 | < 30 | ≥ 60 | O=C(NCc1ccccc1Cl)c1cccc(Nc2ccc(-c3ccccc3)nn2)c1 [Compound A46]
19 | ≥ 60 | ≥ 60 | < 30 | < 30 | CCCCNC(=O)c1cccc(Nc2ccc(-c3ccc(F)cc3)nn2)c1 [Compound A10]
20 | ≥ 60 | ≥ 60 | < 30 | < 30 | CC(C)CNC(=O)c1cccc(Nc2ccc(-c3ccccc3)nn2)c1 [Compound A66]
21 | ≥ 60 | ≥ 60 | < 30 | < 30 | COc1ccc(CNC(=O)c2cccc(Nc3ccc(-c4ccccc4)nn3)c2)cc1 [Compound A77]
22 | ≥ 60 | ≥ 60 | < 30 | < 30 | Cc1ccccc1CNC(=O)c1cccc(Nc2ccc(-c3ccc(F)cc3)nn2)c1 [Compound A35]
23 | ≥ 60 | ≥ 60 | < 30 | < 30 | Cc1cccc(-c2ccc(Nc3cccc(C(=O)NCC(C)C)c3)nn2)c1 [Compound A32]
24 | ≥ 60 | ≥ 60 | < 30 | < 30 | O=C(NC1CCCC1)c1cccc(Nc2ccc(-c3ccc(F)cc3)nn2)c1 [Compound A14]
25 | ≥ 60 | ≥ 60 | < 30 | 30 to 60 | O=C(NCCc1ccccc1)c1cccc(Nc2ccc(-c3ccccc3)nn2)c1 [Compound A74]
26 | ≥ 60 | ≥ 60 | < 30 | < 30 | CC(C)c1ccc(CNC(=O)c2cccc(Nc3ccc(-c4ccc(F)cc4)nn3)c2)cc1 [Compound A36]
27 | ≥ 60 | ≥ 60 | ≥ 60 | ≥ 60 | CCCCCCCNC(=O)c1cccc(Nc2ccc(-c3ccccc3)nn2)c1 [Compound A38]
28 | ≥ 60 | ≥ 60 | < 30 | 30 to 60 | CCCCNC(=O)c1cccc(Nc2ccc(-c3ccccc3)nn2)c1 [Compound A65]
29 | ≥ 60 | ≥ 60 | < 30 | < 30 | CC(C)NC(=O)c1cccc(Nc2ccc(-c3ccccc3)nn2)c1 [Compound A12]
30 | ≥ 60 | ≥ 60 | < 30 | 30 to 60 | Cc1cccc(CNC(=O)c2cccc(Nc3ccc(-c4ccccc4)nn3)c2)c1 [Compound A50]
31 | ≥ 60 | ≥ 60 | < 30 | < 30 | Cc1ccc(C(C)NC(=O)c2cccc(Nc3ccc(-c4ccccc4)nn3)c2)cc1 (centres unmarked) [Compound A57]
32 | ≥ 60 | ≥ 60 | < 30 | < 30 | CCOCCCNC(=O)c1cccc(Nc2ccc(-c3ccccc3)nn2)c1 [Compound A67]
